The structures appear in SMILES notation.

In general, IC50 refers to the concentration that inhibits the measured activity by half.

Experiment [1] deals with L5178Y. The experiment can be described thus: Cytotoxic activity against mouse L5178Y cells assessed as growth inhibition at 10 ug/ml by MTT assay. The experiment is classed as functional. Conditions: read-out: GI. A general note: Tetrazolium dyes change colour on reduction, which living cells bring about.
Experiment [2] has as its system L5178Y. The experiment can be described thus: Cytotoxic activity against mouse L5178Y cells by MTT assay. The experiment is classed as functional, cell-based.

As to `COC1=Cc2ccnc3c(N)cnc(c23)C1=O`, the inhibition of growth at 10 µg/mL in experiment [1] is 64.4%.

Consider `COC1=Cc2ccnc3ccnc(c23)C1(OC)OC`, for which the inhibition of growth at 10 µg/mL in experiment [1] was 51.2%. In experiment [2], `COc1cc2ccnc3c2c(c1OC)NC=C3` [AAPTAMINE] returned an IC50 of 8.3 µM. In addition, the inhibition of growth at 10 µg/mL in experiment [1] turned out to be 100%. With `COc1cc2ccnc3ccn4cnc1c4c23`, it took 13.5 µM to reach half-maximal inhibition in experiment [2] (IC50). Also, in experiment [1], the inhibition of growth at 10 µg/mL worked out at 98.7%. For `COc1nc2c(OC)cc3ccnc4ccn(c1=O)c2c34`, the inhibition of growth at 10 µg/mL in experiment [1] turned out to be 38.6%.

`COc1cc2ccnc3ccn4c(=O)cnc1c4c23`: in experiment [1], the inhibition of growth at 10 µg/mL was found to be 0%. On to `COc1cc2cc(C(=O)c3ccccc3)nc3c2c(c1O)NC=C3`, for which the 50% inhibitory concentration (IC50) in experiment [2] amounted to 5.5 µM. The inhibition of growth at 10 µg/mL in experiment [1] amounted to 93.7%.

The values are drawn from ChEMBL document CHEMBL2331150, “Aaptamine derivatives from the Indonesian sponge Aaptos suberitoides” (J Nat Prod, 2013).
